# In article PMC11514314, “The aquastatin biosynthetic gene cluster encodes a versatile polyketide synthase capable of synthesising heteromeric depsides with diverse alkyl side chains” (Chemical Science, 2024):
# Like-named read-outs stand apart in the source and are kept apart here.
# Tests used:
# [1] = test system: B. subtilis (ATCC 6633); assay: Antibacterial ProTOX bioassay, B. subtilis; format: cell-based; conditions: Bacillus subtilis, ATCC6633; B. subtilis ATCC 6633, 48 h, 28 °C; read-out: Minimum inhibitory concentration (MIC) B. subtilis
# Procedure: (§1) 12. Bioactivity screening.
# (§2) Purified metabolites were dissolved in DMSO to create stock solutions of 10,000 µg/mL. An aliquot from each stock solution was transferred to the first well of Rows B to G on a 96-well microtitre plate and then serially diluted two-fold with DMSO across the 12 wells of the plate to achieve a 2,048-fold concentration gradient. Bioassay medium was added to an aliquot of each diluted solution to achieve a 100-fold dilution in the final bioassay. This […]
# (§3) 0.1 µg/mL in 2% DMSO for yeasts. Row A served as a control with no test compound (indicating no inhibition), and Row H was left uninoculated (serving as a control for complete inhibition).
# (§4) B. subtilis (ATCC 6633), S. aureus (ATCC 25923) and MRSA (ATCC 33592) were used as indicator species for antibacterial activity, employing the ProTOX bioassay platform. A bacterial suspension (50 mL in a 250 mL flask) was prepared in nutrient media by cultivating it for 24 h at 250 rpm and 28 °C. The suspension was diluted to an absorbance of 0.01 absorbance units per mL, and 10 µL aliquots were added to the wells of a 96-well microtitre plate containing the test compounds dispersed in 190 µL of nutrient broth (Amyl) with 10 µL resazurin (12.5 µg/mL). The plates were incubated at 28 °C for 48 h, during which the positive control wells changed colour from blue to light pink. Tetracycline was employed as a control for B. subtilis, while ampicillin was used for S. aureus and MRSA. MIC endpoints were determined visually. Absorbance was measured using a Multiskan Skyhigh Microplate Spectrophotometer (Thermo Fisher Scientific) at 605 nm.
# [2] = test system: S. aureus (ATCC 25923); assay: Antibacterial ProTOX bioassay, S. aureus; format: cell-based; conditions: Staphylococcus aureus, ATCC25923; S. aureus ATCC 25923, 48 h, 28 °C; read-out: Minimum inhibitory concentration (MIC) S. aureus
# Procedure: as §1, §2, §3, §4
# [3] = test system: MRSA (ATCC 33592); assay: Antibacterial ProTOX bioassay, MRSA; format: cell-based, methicillin-resistant S. aureus; conditions: MRSA ATCC 33592, 48 h, 28 °C; for MIC: Staphylococcus aureus, read-out: Minimum inhibitory concentration (MIC) MRSA
# Procedure: as §1, §2, §3, §4
# [4] = test system: Saccharomyces cerevisiae (ATCC 9763); assay: Antifungal EuTOX bioassay, S. cerevisiae; format: cell-based; conditions: S. cerevisiae ATCC 9763, 48 h; for MIC: Saccharomyces cerevisiae, ATCC9763, read-out: Minimum inhibitory concentration (MIC) S. cerevisiae
# Procedure: as §1, §2
# (§5) 0.1 µg/mL in 2% DMSO for yeasts. Row A served as a control with no test compound (indicating no inhibition), and Row H was left uninoculated (serving as a control for complete inhibition). […]
# (§6) MIC endpoints were determined visually. Absorbance was measured using a Multiskan Skyhigh […]
# Saccharomyces cerevisiae (ATCC 9763) was used as indicator species for antifungal activity, employing the EuTOX bioassay platform. A yeast suspension (50 mL in a 250 mL flask) was prepared in 1% malt extract broth by cultivating it for 24 h at 250 rpm and 24 °C. The suspension was diluted to absorbances of 0.03 absorbance units per mL and 30 µL were added to the wells of a 96-well microtitre plate containing the test compounds dispersed in 100 µL of malt extract agar with bromocresol green (50 µg/mL). The plates were incubated at 28 °C for 48 h, during which the positive control wells changed colour from blue to yellow. Blasticidin S HCl was used
# [5] = test system: NS-1 (ATCC TIB-18) mouse myeloma cells; assay: Cytotoxicity resazurin assay, NS-1 cells; format: cell-based; conditions: for IC50: read-out: IC50 NS-1; for cytotoxicity against NS-1 cells (in words): mouse myeloma NS-1
# Procedure: as §1, §2, §5, §6, §6
# (§7) NS-1 (ATCC TIB-18) mouse myeloma and NFF (ATCC PCS -201) human neonatal foreskin fibroblast cells were each inoculated in 96-well microtitre plates (190 µL) at 50,000 cells/mL in DMEM (Dulbecco's Modified Eagle Medium + 10% fetal bovine serum (FBS) + 1% penicillin/streptomycin (10,000 U/mL / 10,000 µg/mL, Life Technologies Cat. No. 15140122), together with resazurin (250 µg/mL; 10 µL) and incubated in 37 °C (5% CO2) incubator. The plates were incubated for 96 h during which time the positive control wells change colour from a blue to pink colour. The absorbance of each well was measured using Multiskan Skyhigh Microplate Spectrophotometer (Thermofisher Scientific) at 605 nm. Sparsomycin was used as a control. The IC50 values were determined using a sigmoidal dose-response model with variable slope in GraphPad Prism 8.
# [6] = test system: NFF (ATCC PCS-201) human neonatal foreskin fibroblast cells; assay: Cytotoxicity resazurin assay, NFF cells; format: cell-based; conditions: for IC50: Homo sapiens, 96 h, read-out: IC50 NFF
# Procedure: as §1, §2, §5, §6, §6, §7
# [7] = test system: Saccharomyces cerevisiae (ATCC 9763); conditions: previously reported; cited from earlier work
# [8] = test system: fatty acid synthase II (FAS II); conditions: cited from earlier work
# [9] = test system: methicillin-resistant S. aureus (MRSA); parameters: method as in PMID 19952429; conditions: cited from earlier work
# [10] = NS1, mouse myeloma NS-1 ATCC TIB-18, 96 h
# [11] = neonatal foreskin fibroblast NFF
Molecule,MIC [1] [µg/mL],MIC [2] [µg/mL],MIC [3] [µg/mL],MIC [4] [µg/mL],"IC50 [5, 10] [µg/mL]","IC50 [6, 11] [µg/mL]",antifungal activity against S. cerevisiae (in words) [7],FAS II inhibitory activity [8],antibacterial activity against MRSA [9],cytotoxicity against NS-1 cells (in words) [5],cytotoxicity against NFF cells (in words) [6],Minimum inhibitory concentration (MIC) S. cerevisiae [4] [µg/mL],Minimum inhibitory concentration (MIC) MRSA [3] [µg/mL],"IC50 ([5]; Mus musculus, NS1, 96 h) [µg/mL]",IC50 ([6]; Fibroblast) [µg/mL]
"CCCCCC/C=C\CCCCCCCc1cc(O[C@@H]2O[C@H](CO)[C@H](O)[C@H](O)[C@H]2O)cc(O)c1C(=O)OC [4c, capricostatin C]",> 100,> 100,> 100,> 200,6.3,6.3,–,–,–,–,–,–,–,–,–
geministatin D,–,–,–,–,–,–,displayed antifungal activity,–,–,–,–,–,–,–,–
"CCCCCCCCCCCCCCCc1cc(O)cc(O)c1C(=O)Oc1cc(C)c(C(=O)O)c(O)c1 [1b, Aquastatin B]",1.6,> 100,> 50,> 200,> 50,> 100,–,do not demonstrate,demonstrated antibacterial activity,–,–,–,–,–,–
"CCCCCCCCCCCCCCCc1cc(O)cc(O)c1C(=O)OC [1e, aquastatin E]",> 100,> 100,> 100,> 200,> 100,> 100,–,–,–,–,–,–,–,–,–
"CCCCCCCCCCCCCc1cc(O[C@@H]2O[C@H](CO)[C@H](O)[C@H](O)[C@H]2O)cc(O)c1C(=O)OC [3c, Ariestatin C]",> 100,> 100,> 100,> 200,0.2,> 100,–,–,–,cytotoxicity was observed,no activity was detected,–,–,–,–
"CCCCCC/C=C\CCCCCCCc1cc(O)cc(O)c1C(=O)Oc1cc(C)c(C(=O)O)c(O)c1 [4b, Capricostatin B]",1.6,12.5,12.5,> 200,0.05,> 100,–,–,–,–,–,–,–,–,–
"CCCCCCCCCCCCCCCc1cc(O[C@@H]2O[C@H](CO)[C@H](O)[C@H](O)[C@H]2O)cc(O)c1C(=O)OC [1c, aquastatin C]",> 100,> 100,> 100,> 200,> 100,> 100,–,do not demonstrate,–,–,–,–,–,–,–
"CCCCCC/C=C\CCCCCCCc1cc(O[C@@H]2O[C@H](CO)[C@H](O)[C@H](O)[C@H]2O)cc(O)c1C(=O)Oc1cc(C)c(C(=O)O)c(O)c1 [4a, Capricostatin A]",1.6,3.1,6.3,> 200,> 100,> 100,–,–,–,–,–,–,–,–,–
"CN(CC[C@H](N)CC(=O)N[C@@H]1C=C[C@@H](n2ccc(N)nc2=O)O[C@H]1C(=O)O)C(=N)N.Cl [blasticidin S HCl, reference compound]",–,–,–,–,–,–,–,–,–,–,–,3.1,–,–,–
"CCCCCCCCCCCCCCCc1cc(O)cc(O)c1C(=O)O [1f, corticiolic acid]",0.8,3.1,3.1,> 200,25,> 100,–,–,–,–,–,–,–,–,–
"CC1(C)S[C@@H]2[C@H](NC(=O)[C@H](N)c3ccccc3)C(=O)N2[C@H]1C(=O)O [ampicillin, reference compound]",–,3.1,> 100,–,–,–,–,–,–,–,–,–,>100,–,–
"CCCCCC/C=C\CCCCCCCc1cc(O)cc(O)c1C(=O)O [4f, Capricostatin F]",0.8,6.3,6.3,> 200,0.05,> 100,–,–,–,–,–,–,–,–,–
"CCCCCCCCCCCCCCCc1cc(O)cc(O)c1 [compound 6, adipostatin]",> 100,> 100,25,> 200,6.3,6.3,–,–,–,–,–,–,–,–,–
"CSC[S@+]([O-])C[C@H](CO)NC(=O)/C=C/c1c(C)[nH]c(=O)[nH]c1=O [sparsomycin, reference compound]",–,–,–,–,–,–,–,–,–,–,–,–,–,1.7,1.7
"CCCCCCCCCCCCCc1cc(O)cc(O)c1C(=O)Oc1cc(C)c(C(=O)O)c(O)c1 [3b, Ariestatin B]",1.6,12.5,12.5,> 200,> 50,> 50,–,–,–,–,–,–,–,–,–
"CCCCCC/C=C\CCCCCCCc1cc(O[C@@H]2O[C@H](CO)[C@H](O)[C@H](O)[C@H]2O)cc(O)c1C(=O)O [4d, Capricostatin D]",25,> 50,> 50,3.1,> 50,> 100,–,–,–,did not exhibit cytotoxicity,did not exhibit cytotoxicity,–,–,–,–
"CCCCCCCCCCCCCc1cc(O[C@@H]2O[C@H](CO)[C@H](O)[C@H](O)[C@H]2O)cc(O)c1C(=O)Oc1cc(C)c(C(=O)O)c(O)c1 [3a, Ariestatin A]",1.6,3.1,6.3,> 200,> 100,> 100,–,–,–,–,–,–,–,–,–
"Cc1cc(O)cc(O)c1C(=O)O [compound 5, orsellinic acid]",> 100,> 100,> 100,> 200,> 100,> 100,–,–,–,–,–,–,–,–,–
"CCCCCCCCCCCCCc1cc(O[C@@H]2O[C@H](CO)[C@H](O)[C@H](O)[C@H]2O)cc(O)c1C(=O)O [3d, Ariestatin D]",25,> 50,> 50,3.1,> 50,> 50,–,–,–,did not exhibit cytotoxicity,did not exhibit cytotoxicity,–,–,–,–
"CN(C)[C@@H]1C(O)=C(C(N)=O)C(=O)[C@@]2(O)C(O)=C3C(=O)c4c(O)cccc4[C@@](C)(O)[C@H]3C[C@@H]12 [tetracycline, reference compound]",6.3,–,–,–,–,–,–,–,–,–,–,–,–,–,–
"CCCCCCCCCCCCCCCc1cc(O[C@@H]2O[C@H](CO)[C@H](O)[C@H](O)[C@H]2O)cc(O)c1C(=O)O [1d, Aquastatin D]",3.1,12.5,6.3,3.1,> 50,> 100,–,–,–,did not exhibit cytotoxicity,did not exhibit cytotoxicity,–,–,–,–
